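How tested: cells in 96-well plates exposed to compound for 48 hours at five concentrations. Here, GI50 denotes the concentration required for 50% inhibition of growth. TGI: concentration producing complete growth inhibition.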
Columns and labels:
Assay in all cases: NCI-60 cell line screen, 48 h
786-0 renal = tested on: 786-0 renal
A498 renal = tested on: A498 renal
ACHN renal = tested on: ACHN renal
BT-549 breast = tested on: BT-549 breast
CAKI-1 renal = tested on: CAKI-1 renal
CCRF-CEM leukemia = tested on: CCRF-CEM leukemia
DU-145 prostate = tested on: DU-145 prostate
EKVX NSCLC = tested on: EKVX NSCLC
HCC-2998 colon = tested on: HCC-2998 colon
HCT-116 colon = tested on: HCT-116 colon
HCT-15 colon = tested on: HCT-15 colon
HL-60(TB) leukemia = tested on: HL-60(TB) leukemia
HOP-62 NSCLC = tested on: HOP-62 NSCLC
HOP-92 NSCLC = tested on: HOP-92 NSCLC
HS 578T breast = tested on: HS 578T breast
HT29 colon = tested on: HT29 colon
IGROV1 ovarian = tested on: IGROV1 ovarian
K-562 leukemia = tested on: K-562 leukemia
KM12 colon = tested on: KM12 colon
LOX IMVI melanoma = tested on: LOX IMVI melanoma
M14 melanoma = tested on: M14 melanoma
MALME-3M melanoma = tested on: MALME-3M melanoma
MCF7 breast = tested on: MCF7 breast
MDA-MB-231 breast = tested on: MDA-MB-231 breast
MDA-MB-435 = tested on: MDA-MB-435
MDA-MB-468 breast = tested on: MDA-MB-468 breast
MOLT-4 leukemia = tested on: MOLT-4 leukemia
NCI-H226 lung = tested on: NCI-H226 lung
NCI-H23 lung = tested on: NCI-H23 lung
NCI-H460 lung = tested on: NCI-H460 lung
NCI-H522 lung = tested on: NCI-H522 lung
NCI/ADR-RES ovarian = tested on: NCI/ADR-RES ovarian
OVCAR-3 ovarian = tested on: OVCAR-3 ovarian
OVCAR-4 ovarian = tested on: OVCAR-4 ovarian
OVCAR-5 ovarian = tested on: OVCAR-5 ovarian
OVCAR-8 ovarian = tested on: OVCAR-8 ovarian
PC-3 prostate = tested on: PC-3 prostate
RPMI-8226 leukemia = tested on: RPMI-8226 leukemia
RXF 393 renal = tested on: RXF 393 renal
SF-268 CNS = tested on: SF-268 CNS
SF-295 CNS = tested on: SF-295 CNS
SF-539 CNS = tested on: SF-539 CNS
SK-MEL-2 melanoma = tested on: SK-MEL-2 melanoma
SK-MEL-28 melanoma = tested on: SK-MEL-28 melanoma
SK-MEL-5 melanoma = tested on: SK-MEL-5 melanoma
SK-OV-3 ovarian = tested on: SK-OV-3 ovarian
SN12C renal = tested on: SN12C renal
SNB-19 CNS = tested on: SNB-19 CNS
SNB-75 CNS = tested on: SNB-75 CNS
SR leukemia = tested on: SR leukemia
SW-620 colon = tested on: SW-620 colon
T-47D breast = tested on: T-47D breast
TK-10 renal = tested on: TK-10 renal
U251 CNS = tested on: U251 CNS
UACC-257 melanoma = tested on: UACC-257 melanoma
UACC-62 melanoma = tested on: UACC-62 melanoma
UO-31 renal = tested on: UO-31 renal

Q: What does the source list for C=C(C)[C@@H]1CC[C@]2(C(=O)OC)CC[C@]3(C)[C@H](CC[C@@H]4[C@@]5(C)CC[C@H](N)C(C)(C)[C@@H]5CC[C@]43C)[C@@H]12?
A: GI50 (786-0 renal): 1700 nM; TGI (786-0 renal): 3330 nM; GI50 (A498 renal): 1450 nM; TGI (A498 renal): 2780 nM; GI50 (ACHN renal): 1700 nM; TGI (ACHN renal): 3070 nM; GI50 (BT-549 breast): 2470 nM; TGI (BT-549 breast): 5590 nM; GI50 (CAKI-1 renal): 1620 nM; TGI (CAKI-1 renal): 3020 nM; GI50 (CCRF-CEM leukemia): 1800 nM; TGI (CCRF-CEM leukemia): 4680 nM; GI50 (DU-145 prostate): 1850 nM; TGI (DU-145 prostate): 3370 nM; GI50 (EKVX NSCLC): 1830 nM; TGI (EKVX NSCLC): 3320 nM; GI50 (HCC-2998 colon): 1650 nM; TGI (HCC-2998 colon): 3070 nM; GI50 (HCT-116 colon): 1480 nM; TGI (HCT-116 colon): 3260 nM; GI50 (HCT-15 colon): 1640 nM; TGI (HCT-15 colon): 3050 nM; GI50 (HL-60(TB) leukemia): 1440 nM; TGI (HL-60(TB) leukemia): 3830 nM; GI50 (HOP-62 NSCLC): 1830 nM; TGI (HOP-62 NSCLC): 3550 nM; GI50 (HOP-92 NSCLC): 1580 nM; TGI (HOP-92 NSCLC): 3130 nM; GI50 (HS 578T breast): 2000 nM; TGI (HS 578T breast): 4290 nM; GI50 (HT29 colon): 1830 nM; TGI (HT29 colon): 3510 nM; GI50 (IGROV1 ovarian): 1740 nM; TGI (IGROV1 ovarian): 3180 nM; GI50 (K-562 leukemia): 711 nM; TGI (K-562 leukemia): 12700 nM; GI50 (KM12 colon): 1770 nM; TGI (KM12 colon): 3310 nM; GI50 (LOX IMVI melanoma): 1330 nM; TGI (LOX IMVI melanoma): 2640 nM; GI50 (M14 melanoma): 1990 nM; TGI (M14 melanoma): 4280 nM; GI50 (MALME-3M melanoma): 1710 nM; TGI (MALME-3M melanoma): 3090 nM; GI50 (MCF7 breast): 1050 nM; TGI (MCF7 breast): 2340 nM; GI50 (MDA-MB-231 breast): 1780 nM; TGI (MDA-MB-231 breast): 3190 nM; GI50 (MDA-MB-435): 1620 nM; TGI (MDA-MB-435): 3100 nM; GI50 (MDA-MB-468 breast): 1770 nM; TGI (MDA-MB-468 breast): 3260 nM; GI50 (MOLT-4 leukemia): 2500 nM; TGI (MOLT-4 leukemia): 6020 nM; GI50 (NCI-H226 lung): 1940 nM; TGI (NCI-H226 lung): 3770 nM; GI50 (NCI-H23 lung): 1780 nM; TGI (NCI-H23 lung): 3310 nM; GI50 (NCI-H460 lung): 1430 nM; TGI (NCI-H460 lung): 2860 nM; GI50 (NCI-H522 lung): 1750 nM; TGI (NCI-H522 lung): 3390 nM; GI50 (NCI/ADR-RES ovarian): 1850 nM; TGI (NCI/ADR-RES ovarian): 3510 nM; GI50 (OVCAR-3 ovarian): 1490 nM; TGI (OVCAR-3 ovarian): 2900 nM; GI50 (OVCAR-4 ovarian): 1830 nM; TGI (OVCAR-4 ovarian): 3580 nM; GI50 (OVCAR-5 ovarian): 1690 nM; TGI (OVCAR-5 ovarian): 3130 nM; GI50 (OVCAR-8 ovarian): 2040 nM; TGI (OVCAR-8 ovarian): 4400 nM; GI50 (PC-3 prostate): 1890 nM; TGI (PC-3 prostate): 4070 nM; GI50 (RPMI-8226 leukemia): 2720 nM; TGI (RPMI-8226 leukemia): 8810 nM; GI50 (RXF 393 renal): 1580 nM; TGI (RXF 393 renal): 3070 nM; GI50 (SF-268 CNS): 1810 nM; TGI (SF-268 CNS): 3490 nM; GI50 (SF-295 CNS): 1700 nM; TGI (SF-295 CNS): 3130 nM; GI50 (SF-539 CNS): 1630 nM; TGI (SF-539 CNS): 3000 nM; GI50 (SK-MEL-2 melanoma): 2040 nM; TGI (SK-MEL-2 melanoma): 4300 nM; GI50 (SK-MEL-28 melanoma): 1680 nM; TGI (SK-MEL-28 melanoma): 3080 nM; GI50 (SK-MEL-5 melanoma): 1930 nM; TGI (SK-MEL-5 melanoma): 3790 nM; GI50 (SK-OV-3 ovarian): 2220 nM; TGI (SK-OV-3 ovarian): 5450 nM; GI50 (SN12C renal): 1750 nM; TGI (SN12C renal): 3270 nM; GI50 (SNB-19 CNS): 1720 nM; TGI (SNB-19 CNS): 3240 nM; GI50 (SNB-75 CNS): 1480 nM; TGI (SNB-75 CNS): 2920 nM; GI50 (SR leukemia): 379 nM; TGI (SR leukemia): 3050 nM; GI50 (SW-620 colon): 1140 nM; TGI (SW-620 colon): 2490 nM; GI50 (T-47D breast): 1880 nM; TGI (T-47D breast): 3820 nM; GI50 (TK-10 renal): 1890 nM; TGI (TK-10 renal): 3470 nM; GI50 (U251 CNS): 1750 nM; TGI (U251 CNS): 3270 nM; GI50 (UACC-257 melanoma): 1890 nM; TGI (UACC-257 melanoma): 4020 nM; GI50 (UACC-62 melanoma): 1770 nM; TGI (UACC-62 melanoma): 3240 nM; GI50 (UO-31 renal): 1510 nM; TGI (UO-31 renal): 2840 nM

— PubChem BioAssay (NCI)
